{"source": "PubChem BioAssay AID1972", "about": "(The Scripps Research Institute Molecular Screening Center, 2009)", "tested_on": "IEC-6 rat intestinal cells viability, luminescence", "assay": "PubChem AID 1972"}
{"smiles": "COc1cc2c(c(OC)c1OC)-c1ccc(O)c(=O)cc1C(NC(C)=O)CC2", "note": "(stereo unspecified)", "values": [{"measurement": "IC50", "result": 121, "unit": "nM"}]}
